From paper PMC6492180, “Cytome micronucleus assays with a metabolically competent human derived liver cell line (Huh6): A promising approach for routine testing of chemicals?” (Environmental and Molecular Mutagenesis, 2018)
Like-named read-outs stand apart in the source and are kept apart here. Marks after values point to notes of the source that are not given here.

Key:
[1] = ref IARC (2018); cited from earlier work
[2] = test system: HepaRG; details: HepaRG; ref Le Hegarat et al., 2010; cited from earlier work
[3] = test system: Human lymphocytes; details: Human lymphocytes, + S9; ref Katic et al., 2010; cited from earlier work
[4] = test system: Hep3B; details: Hep3B; ref Majer et al., 2004; cited from earlier work
[5] = test system: Huh6 cells
Protocol: All experiments were performed in duplicate.
3.8–4.0 × 10^5 cells per well were seeded into 6‐well plates with 3 mL of RPMI (4% FBS) for 12 hr, then dilutions of stock solutions of the diagnostic mutagens were added for different time periods (4, 24, and 48 hr). In each experimental series solvent controls were included. Subsequently, the cells were washed twice with 3.0 mL medium. […] Finally, the cells were washed and trypsinised. Afterwards the cells were washed twice with 8.0 mL RPMI and collected on slides by cytocentrifugation (600 rpm, 5 min). The slides were air dried, fixed, and stained with DiffQuick according to the instructions of the manufacturer. For each experimental point, two cultures were tested per dose. From each culture ≥1,000 BN cells were evaluated under 400‐fold magnification (Nikon Photophot‐FXA, Tokyo, Japan). At least 2,000 binucleated cells were analyzed per dose for the determination of the different nuclear anomalies (MN, NBuds, and NBs).
The experiments were performed as described in the previous chapter. The cells were exposed only to one dose of the different mutagens and were cultivated after the seeding in 6‐well plates which contained 4% or 10% FBS in RPMI, respectively.
Data were evaluated by generalized linear model with Poisson counts. Chi‐square tests for overdispersion were applied. […] P values ≤0.05 were considered statistically significant.
^150-60 000 cells were seeded in 6 well plates with 3 ml RPMI (4% FBS), subsequently different solutions of the test compound (dissolved in medium) were added. After treatment for different time periods, the cells was washed and processed as described in the Material and Method section. […] From each culture 1000 binoculated cells were evaluated. BN-MN – number of micronucleated cells; MN - total number of micronuclei; CBPI – cytokinesis-block proliferation index
^1The experiments were conducted essentially as described in the footnote of Table S1A-I. *p≤0.05

[6] = test system: HepG2; details: HepG2; ref Majer et al., 2004; cited from earlier work
[7] = 10% FBS, 24 hr treatment, 50 µM
[8] = 10% FBS, 24 hr treatment, 100 µM

SMILES: Cn1c(N)nc2ncc(-c3ccccc3)cc21 [PhiP, 2‐Amino‐1‐methyl‐6‐phenylimidazo[4,5‐b]pyridine]
- IARC classification [1]: Formation of guanine adducts; activation: CYP1A2 and SULT; detoxification: GSTs; IARC: Group 2B
- Lowest effective concentration (LOEC) in micronucleus experiments [2]: Negative
- NOEC (highest no observable effect concentration tested) [2]: 320.0 µM
- Lowest effective concentration (LOEC) in micronucleus experiments [3]: 2.5 + S9 (Katic et al., 2010) μM
- Lowest effective concentration (LOEC) in micronucleus experiments [4]: Negative
- NOEC (highest no observable effect concentration tested) [4]: 300.0 µM
- MN effects after 24 hr (or longer) compared with 4 hr treatment (in words) ([5]; 4% FBS): more pronounced effects
- BN-MN (number of micronucleated cells) ([5]; 4% FBS, 4hrs, 25 µM): 23.5 ± 0.7 ‰
- Bridges ([5]; 4% FBS, 4hrs, 25 µM): 0.5 ± 0.7 ‰
- Buds ([5]; 4% FBS, 4hrs, 25 µM): 18.0 ± 5.7 ‰
- CBPI ([5]; 4% FBS, 4hrs, 25 µM): 1.7 ± 0.1
- MN (total number of micronuclei) ([5]; 4% FBS, 4hrs, 25 µM): 23.5 ± 0.7 ‰
- BN-MN (number of micronucleated cells) ([5]; 4% FBS, 4hrs, 50 µM): 22.5 ± 2.1 ‰
- Bridges ([5]; 4% FBS, 4hrs, 50 µM): 2.0 ± 1.4 ‰
- Buds ([5]; 4% FBS, 4hrs, 50 µM): 19.0 ± 7.1 ‰
- CBPI ([5]; 4% FBS, 4hrs, 50 µM): 1.6 ± 0.2
- MN (total number of micronuclei) ([5]; 4% FBS, 4hrs, 50 µM): 22.5 ± 2.1 ‰
- BN-MN (number of micronucleated cells) ([5]; 4% FBS, 4hrs, 100 µM): 26 ± 1.4 ‰
- Bridges ([5]; 4% FBS, 4hrs, 100 µM): 1.5 ± 0.7 ‰
- Buds ([5]; 4% FBS, 4hrs, 100 µM): 23.5 ± 6.4 ‰
- CBPI ([5]; 4% FBS, 4hrs, 100 µM): 1.7 ± 0.0
- MN (total number of micronuclei) ([5]; 4% FBS, 4hrs, 100 µM): 28 ± 1.4 ‰
- BN-MN (number of micronucleated cells) ([5]; 4% FBS, 24hrs, 25 µM): 17.5 ± 2.1 ‰
- Bridges ([5]; 4% FBS, 24hrs, 25 µM): 0.0 ± 0.0 ‰
- Buds ([5]; 4% FBS, 24hrs, 25 µM): 10.5 ± 0.7 ‰
- CBPI ([5]; 4% FBS, 24hrs, 25 µM): 1.9 ± 0.1
- MN (total number of micronuclei) ([5]; 4% FBS, 24hrs, 25 µM): 17.5 ± 2.1 ‰
- BN-MN (number of micronucleated cells) ([5]; 4% FBS, 24hrs, 50 µM): 26.5 ± 0.7* ‰
- Bridges ([5]; 4% FBS, 24hrs, 50 µM): 1.5 ± 0.7 ‰
- Buds ([5]; 4% FBS, 24hrs, 50 µM): 24.5 ± 0.7* ‰
- CBPI ([5]; 4% FBS, 24hrs, 50 µM): 1.8 ± 0.0
- MN (total number of micronuclei) ([5]; 4% FBS, 24hrs, 50 µM): 30.0 ± 1.4* ‰
- BN-MN (number of micronucleated cells) ([5]; 4% FBS, 24hrs, 100 µM): 49.5 ± 2.1* ‰
- Bridges ([5]; 4% FBS, 24hrs, 100 µM): 3.0 ± 0.0 ‰
- Buds ([5]; 4% FBS, 24hrs, 100 µM): 34.0 ± 1.4* ‰
- CBPI ([5]; 4% FBS, 24hrs, 100 µM): 1.9 ± 0.0
- MN (total number of micronuclei) ([5]; 4% FBS, 24hrs, 100 µM): 49.5 ± 2.1* ‰
- BN-MN (number of micronucleated cells) ([5]; 4% FBS, 48hrs, 25 µM): 20.0 ± 1.4 ‰
- Bridges ([5]; 4% FBS, 48hrs, 25 µM): 0.0 ± 0.0 ‰
- Buds ([5]; 4% FBS, 48hrs, 25 µM): 20.5 ± 3.5 ‰
- CBPI ([5]; 4% FBS, 48hrs, 25 µM): 1.9 ± 0.1
- MN (total number of micronuclei) ([5]; 4% FBS, 48hrs, 25 µM): 20.5 ± 0.7 ‰
- BN-MN (number of micronucleated cells) ([5]; 4% FBS, 48hrs, 50 µM): 20.5 ± 3.5 ‰
- Bridges ([5]; 4% FBS, 48hrs, 50 µM): 0.5 ± 0.7 ‰
- Buds ([5]; 4% FBS, 48hrs, 50 µM): 22.0 ± 4.2 ‰
- CBPI ([5]; 4% FBS, 48hrs, 50 µM): 1.9 ± 0.0
- MN (total number of micronuclei) ([5]; 4% FBS, 48hrs, 50 µM): 21.5 ± 3.5 ‰
- BN-MN (number of micronucleated cells) ([5]; 4% FBS, 48hrs, 100 µM): 22.0 ± 1.4 ‰
- Bridges ([5]; 4% FBS, 48hrs, 100 µM): 0.5 ± 0.7 ‰
- Buds ([5]; 4% FBS, 48hrs, 100 µM): 29.5 ± 0.7* ‰
- CBPI ([5]; 4% FBS, 48hrs, 100 µM): 1.8 ± 0.2
- MN (total number of micronuclei) ([5]; 4% FBS, 48hrs, 100 µM): 24.0 ± 1.4 ‰
- BN-MN (number of micronucleated cells) [5, 7]: 50.0 ± 2.8*
- Bridges [5, 7]: 1.0 ± 1.4
- Buds [5, 7]: 50.0 ± 1.4
- CBPI [5, 7]: 2.0 ± 0.1
- MN (total number of micronuclei) [5, 7]: 56.5 ± 2.1*
- BN-MN (number of micronucleated cells) [5, 8]: 55.0 ± 11.3*
- Bridges [5, 8]: 1.5 ± 0.7
- Buds [5, 8]: 60.0 ± 7.1*
- CBPI [5, 8]: 1.8 ± 0.0
- MN (total number of micronuclei) [5, 8]: 61 ± 12.7*
- MN frequencies with 10% serum compared with 4% serum (in words) ([5]; 24 hr treatment): stronger effects
- Lowest effective concentration (LOEC) in micronucleus experiments ([5]; Huh6): 50.0 µM
- Lowest effective concentration (LOEC) in micronucleus experiments [6]: 25.0 (Majer et al., 2004) μM
